# Test results from paper PMC3050703 (Cancer chemotherapy and pharmacology, 2010).
# Where two headings read alike, the source gives them in different places.
# How the values were obtained:
# [1] = test system: MCF-7 cells; conditions: read-out: IC50 proliferation of transformed MCF-7 cells; ref [1]; cited from earlier work
# [2] = molecular target: Abl; conditions: read-out: Ki Abl; ref [3]; cited from earlier work
# [3] = test system: HCT116 colon cancer; conditions: ref [1], cited from earlier work
# [4] = molecular target: T315I mutant Abl kinase; conditions: read-out: Ki T315I mutant Abl; ref [3]; cited from earlier work
# [5] = test system: advanced solid tumors; assay: Anti-tumor activity per RECIST in patients; type: in vivo, human
# [6] = test system: xenografts of leukemia, pancreatic cancer, and colon cancer; conditions: ref [1]; cited from earlier work
# [7] = molecular target: Aurora kinase A; conditions: read-out: Ki Aurora kinase A; ref [3]; cited from earlier work
# [8] = Plasma pharmacokinetics in patients; type: in vivo, human; conditions: for clearance / half-life / Vd / Cmax: human, plasma, intravenous
# [9] = Dose Level 1 (4 mg/m^2/hr), N=1, any cycle, regardless of attribution
# [10] = Dose Level 2 (8 mg/m^2/hr), N=2, any cycle, regardless of attribution
# [11] = Dose Level 3 (16 mg/m^2/hr), N=2, any cycle, regardless of attribution
# [12] = Dose Level 4 (32 mg/m^2/hr), N=3, any cycle, regardless of attribution
# [13] = Dose Level 5 (45 mg/m^2/hr), N=4, any cycle, regardless of attribution
# [14] = Dose Level 6 (64 mg/m^2/hr), N=2, any cycle
# [15] = Dose Level 6 (64 mg/m^2/hr), N=2, any cycle, regardless of attribution
# [16] = Dose Level 6 (oral 100 mg) (64 mg/m^2/hr), N=7, any cycle
# [17] = Dose Level 6 (oral 100 mg) (64 mg/m^2/hr), N=7, any cycle, regardless of attribution
# [18] = Dose Level 7 (96 mg/m^2/hr), N=6, any cycle
# [19] = Dose Level 7 (96 mg/m^2/hr), N=6, any cycle, regardless of attribution
structure (smiles),measurement,setting,value
Cc1cc(Nc2cc(N3CCN(C)CC3)nc(Sc3ccc(NC(=O)C4CC4)cc3)n2)[nH]n1 [MK-0457],IC50,[1],15 to 113 nM
same,Ki,[2],30 nM
same,"marked tumor regression, number of HCT116 nude rat models",[3],4 of 7
same,Ki,[4],42 nM
same,objective anti-tumor responses (RECIST),[5]; all dose levels,no objective anti-tumor responses
same,patients with stable disease (2 or more cycles without progression),[5]; all dose levels,12 patients
same,tumor response in nude mice xenografts,[6],marked tumor regression
same,Total AUC,"[8]; 24-hour CIV 16 mg/m^2/hr, N=1, cycle 1",18.8 µM·h
same,dose-adjusted AUC (average),[8]; 24-hour CIV infusion,0.0315 µM·h/mg
same,clearance,[8],900 to 2320 mL/min
same,half-life,[8],6.6 to 10.2 h
same,Vd,[8]; 8 mg/m2,735 L
same,clearance,[8]; 8 mg/m2,2320 mL/min
same,half-life,[8]; 8 mg/m2,9.3 h
same,Cmax,[8]; 8 mg/m^2/hr,274 nM
same,Vd,[8]; 16 mg/m2,514 L
same,clearance,[8]; 16 mg/m2,1690 mL/min
same,half-life,[8]; 16 mg/m2,8.5 h
same,Cmax,[8]; 16 mg/m^2/hr,911 nM
same,Vd,[8]; 32 mg/m2,328 L
same,clearance,[8]; 32 mg/m2,1160 mL/min
same,half-life,[8]; 32 mg/m2,10.2 h
same,Cmax,[8]; 32 mg/m^2/hr,2170 nM
same,Vd,[8]; 45 mg/m2,429 L
same,clearance,[8]; 45 mg/m2,1390 mL/min
same,half-life,[8]; 45 mg/m2,10.2 h
same,Cmax,[8]; 45 mg/m^2/hr,2670 nM
same,Vd,[8]; 64 mg/m2,301 L
same,clearance,[8]; 64 mg/m2,1270 mL/min
same,half-life,[8]; 64 mg/m2,8 h
same,Cmax,[8]; 64 mg/m^2/hr,4010 nM
same,Vd,[8]; 96 mg/m2,248 L
same,clearance,[8]; 96 mg/m2,893 mL/min
same,half-life,[8]; 96 mg/m2,6.6 h
same,Cmax,[8]; 96 mg/m^2/hr,7640 nM
same,dose limiting toxicity,96 mg/m^2/hr 24-hour CIV infusion (dose level 7),grade 4 neutropenia and grade 3 herpes zoster
same,maximum tolerated dose (MTD),"24-hour CIV infusion every 21 days, patients with advanced solid tumors",64 mg/m^2/hr
same,number of patients with Fatigue Grade 2,[9],1
same,number of patients with Nausea Grade 3,[9],1
same,number of patients with Vomiting Grade 3,[9],1
same,number of patients with Arthralgia Grade 2,[10],1
same,number of patients with Back pain Grade 2,[10],1
same,number of patients with Fatigue Grade 2,[10],1
same,number of patients with Hypoalbuminemia Grade 2,[10],1
same,number of patients with Increased alk phos (alkaline phosphatase) Grade 2,[10],1
same,number of patients with Urinary tract infection Grade 2,[10],1
same,number of patients with Diarrhea Grade 2,[11],1
same,number of patients with Nausea Grade 3,[11],1
same,number of patients with Vomiting Grade 3,[11],1
same,number of patients with Arthralgia Grade 2,[12],1
same,number of patients with Diarrhea Grade 2,[12],1
same,number of patients with Fatigue Grade 2,[12],1
same,number of patients with Nausea Grade 2,[12],1
same,"number of patients with Vomiting (printed on the heading line, no grade)",[12],1
same,number of patients with Neutropenia Grade 3,"Dose Level 5 (45 mg/m^2/hr), N=4, any cycle",1
same,number of patients with Back pain Grade 2,[13],1
same,number of patients with Dyspnea Grade 2,[13],1
same,number of patients with Fatigue Grade 2,[13],2
same,number of patients with Hypophosphatemia Grade 3,[13],1
same,number of patients with Nausea Grade 2,[13],1
same,"number of patients with Vomiting (printed on the heading line, no grade)",[13],1
same,number of patients with Leukopenia Grade 3,[14],1
same,number of patients with Neutropenia Grade 3,[14],1
same,number of patients with Arthralgia Grade 2,[15],1
same,number of patients with Fatigue Grade 3,[15],1
same,number of patients with Hyperglycemia Grade 3,[15],1
same,number of patients with Hypoalbuminemia Grade 2,[15],1
same,number of patients with Hypophosphatemia Grade 2,[15],1
same,number of patients with Urinary tract infection Grade 2,[15],1
same,number of patients with Leukopenia Grade 3,[16],1
same,number of patients with Neutropenia Grade 3,[16],1
same,number of patients with Arthralgia Grade 4,[17],1
same,number of patients with Back pain Grade 2,[17],1
same,number of patients with Diarrhea Grade 3,[17],2
same,number of patients with Dyspnea Grade 2,[17],2
same,number of patients with Fatigue Grade 2,[17],5
same,number of patients with Hyperglycemia Grade 2,[17],1
same,number of patients with Hyperglycemia Grade 3,[17],1
same,number of patients with Hypoalbuminemia Grade 2,[17],1
same,number of patients with Hypophosphatemia Grade 2,[17],2
same,number of patients with Hypophosphatemia Grade 3,[17],1
same,number of patients with Nausea Grade 2,[17],2
same,number of patients with Urinary tract infection Grade 2,[17],1
same,number of patients with Vomiting Grade 3,[17],2
same,number of patients with Anemia Grade 3,[18],1
same,number of patients with Leukopenia Grade 3,[18],3
same,number of patients with Neutropenia Grade 3,[18],1
same,number of patients with Neutropenia Grade 4,[18],1
same,number of patients with Diarrhea Grade 2,[19],1
same,number of patients with Dyspnea Grade 3,[19],1
same,number of patients with Fatigue Grade 2,[19],3
same,number of patients with Hypoalbuminemia Grade 3,[19],1
same,number of patients with Increased alk phos (alkaline phosphatase) Grade 2,[19],1
same,number of patients with Urinary tract infection Grade 2,[19],1
same,prolongation of the QTc,"ECG pre-dose and after 24-hour infusion, cycle 1",not observed
same,febrile neutropenia,"all dose levels, any cycle",no cases
same,patients with dose reduced due to toxicity,of 27 patients (11%),Three
same,patients with treatment delayed or dose reduced due to toxicity,of 27 patients (15%),4 patients
same,patients with serious adverse events regardless of attribution,"of 27 patients (33%), all dose levels",9 patients
same,deaths on study or within 30 days of follow-up,patients who received MK-0457,no deaths
same,adverse events at least possibly related to study drug after oral dose,"single 100 mg capsule, between oral dose and start of CIV infusion, 7 patients",No adverse events
